Where two headings read alike, the source gives them in different places.
How the values were obtained:
MDA-MB-231 cells = test: CellTiter-Glo Luminescent Cell Viability Assay on ER-negative breast cancer MDA-MB-231 cells; type: cell-based; settings: average ± standard deviation when tested more than 3 times, read-out: Inhibition of the viability of breast cancer cells, IC50
Protocol: A: In Vitro CellTiter-Glo® Luminescent Cell Viability Assay on ER-Negative Breast Cancer MDA-MB-231 Cells:
MDA-MB-231 cells were maintained at 37° C., under 5% CO2 atmosphere in DMEM containing 10% fetal calf serum. The cells were seeded on 96-well plate at a density of 6×10^3 cells per well. MDA-MB-231 cells were treated with a test compound dissolved in DMSO at the concentrations of zero, 0.3 μM, 0.5 μM, 1 μM, 2 μM, 3 μM, 5 μM, 10 μM, 20 μM, 30 μM, 50 μM and 100 μM for 72 hours. Treated cells were examined by CellTiter-Glo® Luminescent Cell Viability Assay Kit (Promega), and luminescence values were recorded with Envision.

MCF7 cells = test: CellTiter-Glo Luminescent Cell Viability Assay on ER-positive breast cancer MCF-7 cells; type: cell-based, human; settings: average ± standard deviation when tested more than 3 times, read-out: Inhibition of the viability of breast cancer cells, IC50
Description: B: In Vitro CellTiter-Glo® Luminescent Cell Viability Assay on ER-Positive Breast Cancer MCF-7 Cells:
MCF7 cells are breast cancer cell lines that highly express ER-66, ER-46 and ER-36. (Relevance of breast cancer cell lines as models for breast tumours: an update. Marc Lacroix, Guy Leclercq, Breast Cancer Research and Treatment (2004) 83, 249-289; Wang et al., Proc. Natl. Acad. Sci. U.S.A. 103:9063-9068 (2006)). MCF7 cells were obtained from ATCC and maintained in Dulbecco's Modified Eagles Medium (DMEM) and 10% fetal calf serum at 37° C., under 5% CO2 atmosphere. The cells were seeded on 96-well plate at a density of 6×10^3 cells per well. MCF7 cells were treated with a test compound dissolved in DMSO at the concentrations of zero, 0.3 μM, 0.5 μM, 1 μM, 2 μM, 3 μM, 5 μM, 10 μM, 20 μM, 30 μM, 50 μM and 100 μM for 72 hours. Treated cells were examined by CellTiter-Glo® Luminescent Cell Viability Assay Kit (Promega), and luminescence values were recorded with Envision.

## COc1c(-c2ccoc2)oc2c(CC=C(C)C)c(O)c(CC=C(C)C)c(O)c2c1=O [Compound 42, 2-(furan-3-yl)-5,7-dihydroxy-3-methoxy-6,8-di(3-methyl-2-buten-1-yl)-4H-benzopyran-4-one]
MDA-MB-231 cells; Homo sapiens, MDA-MB-231, 72 h
  IC50: 28.7 µM
MCF7 cells; Homo sapiens, MCF7, 72 h
  IC50: 12.4 µM

## COc1c(-c2cscn2)oc2c(CC=C(C)C)c(O)c(CC=C(C)C)c(O)c2c1=O [Compound 43, 2-(thiazol-4-yl)-5,7-dihydroxy-3-methoxy-6,8-di(3-methyl-2-buten-1-yl)-4H-benzopyran-4-one]
MDA-MB-231 cells; Homo sapiens, MDA-MB-231, 72 h
  IC50: > 100 µM
MCF7 cells; Homo sapiens, MCF7, 72 h
  IC50: 25.7 µM

## COc1c(-c2cocn2)oc2c(CC=C(C)C)c(O)c(CC=C(C)C)c(O)c2c1=O [Compound 44, 2-(oxazol-4-yl)-5,7-dihydroxy-3-methoxy-6,8-di(3-methyl-2-buten-1-yl)-4H-benzopyran-4-one]
MDA-MB-231 cells; Homo sapiens, MDA-MB-231, 72 h
  IC50: > 100 µM
MCF7 cells; Homo sapiens, MCF7, 72 h
  IC50: > 100 µM

## COc1c(-c2ccnn2C)oc2c(CC=C(C)C)c(O)c(CC=C(C)C)c(O)c2c1=O [Compound 45, 2-(1-methyl-1H-pyrazol-5-yl)-5,7-dihydroxy-3-methoxy-6,8-di(3-methyl-2-buten-1-yl)-4H-benzopyran-4-one]
MDA-MB-231 cells; 72 hours
  IC50: > 100 µM
MCF7 cells; Homo sapiens, MCF7, 72 h
  IC50: 31.1 µM

## COc1c(-c2cnn(C)c2)oc2c(CC=C(C)C)c(O)c(CC=C(C)C)c(O)c2c1=O [Compound 46, 2-(1-methyl-1H-pyrazol-4-yl)-5,7-dihydroxy-3-methoxy-6,8-di(3-methyl-2-buten-1-yl)-4H-benzopyran-4-one]
MDA-MB-231 cells; Homo sapiens, MDA-MB-231, 72 h
  IC50: > 100 µM
MCF7 cells; Homo sapiens, MCF7, 72 h
  IC50: > 100 µM

## COc1c(-c2nccn2C)oc2c(CC=C(C)C)c(O)c(CC=C(C)C)c(O)c2c1=O [Compound 47, 2-(1-methyl-1H-imidazol-2-yl)-5,7-dihydroxy-3-methoxy-6,8-di(3-methyl-2-buten-1-yl)-4H-benzopyran-4-one]
MDA-MB-231 cells; Homo sapiens, MDA-MB-231, 72 h
  IC50: 43.5 µM
MCF7 cells; Homo sapiens, MCF7, 72 h
  IC50: > 100 µM

## COc1c(-c2ccnn2C)oc2c(CC=C(C)C)c(O)c(CC=C(C)C)c(O)c2c1=O [Compound 48, 2-(1-methyl-1H-pyrazol-5-yl)-5,7-dihydroxy-3-methoxy-6,8-di(3-methyl-2-buten-1-yl)-4H-benzopyran-4-one]
MDA-MB-231 cells; 72 hours
  IC50: 25 µM
MCF7 cells; 72 hours
  IC50: 37.2 µM

## COc1c(-c2cc3ccccc3o2)oc2c(CC=C(C)C)c(O)c(CC=C(C)C)c(O)c2c1=O [Compound 50, 2-(benzofuran-2-yl)-5,7-dihydroxy-3-methoxy-6,8-di(3-methyl-2-buten-1-yl)-4H-benzopyran-4-one]
MDA-MB-231 cells; Homo sapiens, MDA-MB-231, 72 h
  IC50: 13.6 µM
MCF7 cells; Homo sapiens, MCF7, 72 h
  IC50: 20.4 µM

## COc1c(-c2ccnc(F)c2)oc2c(CC=C(C)C)c(O)c(CC=C(C)C)c(O)c2c1=O [Compound 51, 2-(2-fluoropyridin-4-yl)-5,7-dihydroxy-3-methoxy-6,8-di(3-methyl-2-buten-1-yl)-4H-benzopyran-4-one]
MDA-MB-231 cells; Homo sapiens, MDA-MB-231, 72 h
  IC50: > 100 µM
MCF7 cells; Homo sapiens, MCF7, 72 h
  IC50: > 100 µM

## COc1c(-c2ccc(Cl)nc2)oc2c(CC=C(C)C)c(O)c(CC=C(C)C)c(O)c2c1=O [Compound 52, 2-(6-chloropyridin-3-yl)-5,7-dihydroxy-3-methoxy-6,8-di(3-methyl-2-buten-1-yl)-4H-benzopyran-4-one]
MDA-MB-231 cells; Homo sapiens, MDA-MB-231, 72 h
  IC50: 8.34 ± 1.63 µM
MCF7 cells; Homo sapiens, MCF7, 72 h
  IC50: 7.04 ± 1.43 µM

## COc1c(-c2ccc(Cl)cn2)oc2c(CC=C(C)C)c(O)c(CC=C(C)C)c(O)c2c1=O [Compound 53, 2-(5-chloropyridin-2-yl)-5,7-dihydroxy-3-methoxy-6,8-di(3-3-methyl-2-buten-1-yl)-4H-benzopyran-4-one]
MDA-MB-231 cells; 72 hours
  IC50: 17 ± 4.97 µM
MCF7 cells; 72 hours
  IC50: 19.5 ± 1.02 µM

## COc1c(-c2ccc(F)nc2)oc2c(CC=C(C)C)c(O)c(CC=C(C)C)c(O)c2c1=O [Compound 54, 2-(6-fluoropyridin-3-yl)-5,7-dihydroxy-3-methoxy-6,8-di(3-3-methyl-2-buten-1-yl)-4H-benzopyran-4-one]
MDA-MB-231 cells; 72 hours
  IC50: 10.3 ± 0.38 µM
MCF7 cells; 72 hours
  IC50: 7.06 ± 3.16 µM

## COc1c(-c2ccnc(Cl)c2)oc2c(CC=C(C)C)c(O)c(CC=C(C)C)c(O)c2c1=O [Compound 55, 2-(2-chloropyridin-4-yl)-5,7-dihydroxy-3-methoxy-6,8-di(3-methyl-2-buten-1-yl)-4H-benzopyran-4-one]
MDA-MB-231 cells; Homo sapiens, MDA-MB-231, 72 h
  IC50: 5.51 ± 0.02 µM
MCF7 cells; Homo sapiens, MCF7, 72 h
  IC50: 4.17 ± 2.45 µM

## COc1c(-c2ccc(C(=O)O)cc2)oc2c(CC=C(C)C)c(O)c(CC=C(C)C)c(O)c2c1=O [Compound 56, 4-[5,7-dihydroxy-3-methoxy-6,8-di(3-methyl-2-butenyl)-4-oxo-4H-benzopyran-2-yl]benzoic acid]
MDA-MB-231 cells; Homo sapiens, MDA-MB-231, 72 h
  IC50: 5.96 µM
MCF7 cells; Homo sapiens, MCF7, 72 h
  IC50: 29.2 µM

## COc1c(-c2ccc(OC(F)(F)F)cc2)oc2c(CC=C(C)C)c(O)c(CC=C(C)C)c(O)c2c1=O [Compound 58, 2-(4-trifluoromethoxyphenyl)-5,7-dihydroxy-3-methoxy-6,8-di(3-methyl-2-buten-1-yl)-4H-benzopyran-4-one]
MDA-MB-231 cells; Homo sapiens, MDA-MB-231, 72 h
  IC50: 3.63 µM
MCF7 cells; Homo sapiens, MCF7, 72 h
  IC50: > 100 µM

## COc1c(-c2ccc(N(C)C)cc2)oc2c(CC=C(C)C)c(O)c(CC=C(C)C)c(O)c2c1=O [Compound 59, 2-(4-dimethylaminophenyl)-5,7-dihydroxy-3-methoxy-6,8-di(3-methyl-2-buten-1-yl)-4H-benzopyran-4-one]
MDA-MB-231 cells; Homo sapiens, MDA-MB-231, 72 h
  IC50: > 100 µM
MCF7 cells; Homo sapiens, MCF7, 72 h
  IC50: 5.12 µM

## COc1c(-c2ccc(S(C)(=O)=O)cc2)oc2c(CC=C(C)C)c(O)c(CC=C(C)C)c(O)c2c1=O [Compound 64, 2-(4-methanesulfonylphenyl)5,7-dihydroxy-3-methoxy-6,8-di(3-methyl-2-buten-1-yl)-4H-benzopyran-4-one]
MDA-MB-231 cells; Homo sapiens, MDA-MB-231, 72 h
  IC50: 2.45 µM
MCF7 cells; Homo sapiens, MCF7, 72 h
  IC50: 40.6 µM

## COc1c(-c2ccc(C(C)=O)cc2)oc2c(CC=C(C)C)c(O)c(CC=C(C)C)c(O)c2c1=O [Compound 65, 2-(4-acetylphenyl)-5,7-dihydroxy-3-methoxy-6,8-di(3-methyl-2-buten-1-yl)-4H-benzopyran-4-one]
MDA-MB-231 cells; Homo sapiens, MDA-MB-231, 72 h
  IC50: > 100 µM
MCF7 cells; Homo sapiens, MCF7, 72 h
  IC50: 10.2 µM

## COc1c(-c2ccc(C(C)O)cc2)oc2c(CC=C(C)C)c(O)c(CC=C(C)C)c(O)c2c1=O (stereo not shown) [Compound 67]
MDA-MB-231 cells; 72 hours
  IC50: 3.27 µM
MCF7 cells; 72 hours
  IC50: 4.66 µM

## COc1c(-c2cncs2)oc2c(CC=C(C)C)c(O)c(CC=C(C)C)c(O)c2c1=O [Compound 68, 2-(thiazol-5-yl)-5,7-dihydroxy-3-methoxy-6,8-di(3-methyl-2-buten-1-yl)-4H-benzopyran-4-one]
MDA-MB-231 cells; 72 hours
  IC50: 23.8 µM
MCF7 cells; 72 hours
  IC50: 8.89 µM

## COc1c(CC=C(C)C)c(O)c2c(=O)c(OC)c(-c3ccc(F)c(F)c3)oc2c1CC=C(C)C [Compound 81A, 2-(3,4-difluorophenyl)-5-hydroxy-3,7-dimethoxy-6,8-di(3-methyl-2-buten-1-yl)-4H-benzopyran-4-one]
MDA-MB-231 cells; Homo sapiens, MDA-MB-231, 72 h
  IC50: > 100 µM
MCF7 cells; Homo sapiens, MCF7, 72 h
  IC50: > 100 µM

## COc1c(CC=C(C)C)cc2c(=O)c(OC)c(-c3ccc(F)c(F)c3)oc2c1CC=C(C)C [Compound 81B, 2-(3,4-difluorophenyl)-3,7-dimethoxy-6,8-di(3-methyl-2-buten-1-yl)-4H-benzopyran-4-one]
MDA-MB-231 cells; Homo sapiens, MDA-MB-231, 72 h
  IC50: > 100 µM
MCF7 cells; Homo sapiens, MCF7, 72 h
  IC50: > 100 µM

## COc1c(CC=C(C)C)c(O)c2c(=O)c(OC)c(-c3ccc(Cl)c(F)c3)oc2c1CC=C(C)C [Compound 82A, 2-(3-fluoro-4-chlorophenyl)-5-hydroxy-3,7-dimethoxy-6,8-di(3-methyl-2-buten-1-yl)-4H-benzopyran-4-one]
MDA-MB-231 cells; Homo sapiens, MDA-MB-231, 72 h
  IC50: > 100 µM
MCF7 cells; Homo sapiens, MCF7, 72 h
  IC50: > 100 µM

## COc1c(CC=C(C)C)c(OC)c2c(=O)c(OC)c(-c3ccc(Cl)c(F)c3)oc2c1CC=C(C)C [Compound 82B, 2-(3-fluoro-4-chlorophenyl)-3,5,7-trimethoxy-6,8-di(3-methyl-2-buten-1-yl)-4H-benzopyran-4-one]
MDA-MB-231 cells; Homo sapiens, MDA-MB-231, 72 h
  IC50: 26.3 µM
MCF7 cells; Homo sapiens, MCF7, 72 h
  IC50: > 100 µM

## CC(C)=CCc1c(O)c(CC=C(C)C)c2oc(-c3ccc(F)c(F)c3)cc(=O)c2c1O [Compound 85, 2-(3,4-difluorophenyl)-5,7-dihydroxy-6,8-di(3-methyl-2-buten-1-yl)-4H-benzopyran-4-one]
MDA-MB-231 cells; Homo sapiens, MDA-MB-231, 72 h
  IC50: > 100 µM
MCF7 cells; Homo sapiens, MCF7, 72 h
  IC50: > 100 µM

## CC(C)=CCc1c(O)c(CC=C(C)C)c2oc(-c3ccc(Cl)c(F)c3)cc(=O)c2c1O [Compound 86, 2-(3-fluoro-4-chlorophenyl)-5,7-dihydroxy-6,8-di(3-methyl-2-buten-1-yl)-4H-benzopyran-4-one]
MDA-MB-231 cells; Homo sapiens, MDA-MB-231, 72 h
  IC50: > 100 µM
MCF7 cells; Homo sapiens, MCF7, 72 h
  IC50: > 100 µM

## CC(C)=CCc1c(O)c(CC=C(C)C)c2oc(-c3ccc(C)cc3)cc(=O)c2c1O [Compound 87, 2-(4-methylphenyl)-5,7-dihydroxy-6,8-di(3-methyl-2-buten-1-yl)-4H-benzopyran-4-one]
MDA-MB-231 cells; Homo sapiens, MDA-MB-231, 72 h
  IC50: 16.3 µM
MCF7 cells; Homo sapiens, MCF7, 72 h
  IC50: > 100 µM

## CC(C)=CCc1c(O)c(CC=C(C)C)c2oc(-c3ccc(Cl)c(Cl)c3)cc(=O)c2c1O [Compound 88, 2-(3,4-dichlorophenyl)-5,7-dihydroxy-6,8-di(3-methyl-2-buten-1-yl)-4H-benzopyran-4-one]
MDA-MB-231 cells; Homo sapiens, MDA-MB-231, 72 h
  IC50: 16.1 µM
MCF7 cells; Homo sapiens, MCF7, 72 h
  IC50: > 100 µM

## CC(C)=CCc1c(O)c(CC=C(C)C)c2oc(-c3ccc(F)cc3)cc(=O)c2c1O [Compound 89, 2-(4-fluorophenyl)-5,7-dihydroxy-6,8-di(3-methyl-2-buten-1-yl)-4H-benzopyran-4-one]
MDA-MB-231 cells; Homo sapiens, MDA-MB-231, 72 h
  IC50: > 100 µM
MCF7 cells; Homo sapiens, MCF7, 72 h
  IC50: > 100 µM

Source: patent US9090583B2, “Benzopyrone estrogen receptor regulator” (BEIJING SHENOGEN PHARMA GROUP LTD., priority 2010, dated 2015)
